The IC50 is the concentration at which inhibition is half-maximal. A word on the viability, T/C: it is the result in the treated group divided by that in the control group, in per cent.

We go through two molecules from PubChem BioAssay AID2060325 (Molecular Pharmacology Branch, DTP, NCI, 2025).

The structures appear in SMILES notation. Several values for one entry are separate records, joined by “and”; a condition that tells them apart may be missing. Equal entries are not always repeated.

For this experiment, the system named is SK-OV-3 multi-cell spheroids, viability. The experiment in a line: Anticancer human tumor SK-OV-3 cell line growth inhibition [IpAb].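 On viability, T/C: viability read after seven days of drug exposure; percent of DMSO vehicle control luminescence.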 To be noted: for viability, T/C: stronger effect = lower value. Put shortly: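 Combinations with ipatasertib or abemaciclib were tested on tumour spheroids holding HUVEC (25%) and MSC (15%) alongside 60% malignant cells. Top concentration was at or near clinical Cmax (10 microM if undefined), descending in half-log steps.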

In the case of `C=CC(=O)N1CCN(c2nc(=O)n(-c3c(C)ccnc3C(C)C)c3nc(-c4c(O)cccc4F)c(F)cc23)C(C)C1` (configuration not stated) + CC(C)NCC(C(=O)N1CCN(c2ncnc3c2C(C)CC3O)CC1)c1ccc(Cl)cc1, the IC50 was 7.19 µM (curve of first compound, second compound 0.1 µM); less than 0.0316 µM (curve of first compound, second compound 0.316 µM); less than 0.0316 µM (curve of first compound, second compound 1 µM); less than 0.0316 µM (curve of first compound, second compound 3.16 µM); less than 0.0316 µM (curve of first compound, second compound 10 µM). The viability, T/C is, setting by setting: (second compound 0.1 µM, first compound 0.0316 µM) 75.9%; (second compound 0.1 µM, first compound 0.1 µM) 80.2%; (second compound 0.1 µM, first compound 0.316 µM) 77.7%; (second compound 0.1 µM, first compound 1 µM) 76.3%; (second compound 0.1 µM, first compound 3.16 µM) 72.7%; (second compound 0.1 µM, first compound 10 µM) 41%. Also, the viability, T/C is 35.8% (second compound 0.316 µM, first compound 0.0316 µM); 39.4% (second compound 0.316 µM, first compound 0.1 µM); 39.6% (second compound 0.316 µM, first compound 0.316 µM); 38.7% (second compound 0.316 µM, first compound 1 µM); 39.5% (second compound 0.316 µM, first compound 3.16 µM); 26.2% (second compound 0.316 µM, first compound 10 µM). For the same molecule, the viability, T/C runs as follows: (second compound 1 µM, first compound 0.0316 µM) 21.1%; (second compound 1 µM, first compound 0.1 µM) 19.1%; (second compound 1 µM, first compound 0.316 µM) 21.4%; (second compound 1 µM, first compound 1 µM) 23.8%; (second compound 1 µM, first compound 3.16 µM) 24.6%; (second compound 1 µM, first compound 10 µM) 16.9%. Also, the viability, T/C (second compound 3.16 µM, first compound 0.0316 µM) was 14.8%; the viability, T/C (second compound 3.16 µM, first compound 0.1 µM) was 17.1%; the viability, T/C (second compound 3.16 µM, first compound 0.316 µM) was 16.4%; the viability, T/C (second compound 3.16 µM, first compound 1 µM) is 18.2%; the viability, T/C (second compound 3.16 µM, first compound 3.16 µM) is 17%; the viability, T/C (second compound 3.16 µM, first compound 10 µM) was 11.2%. Further, the viability, T/C by setting is: (second compound 10 µM, first compound 0.0316 µM) 9.96%; (second compound 10 µM, first compound 0.1 µM) 10.9%; (second compound 10 µM, first compound 0.316 µM) 10.4%; (second compound 10 µM, first compound 1 µM) 10.8%; (second compound 10 µM, first compound 3.16 µM) 10.9%; (second compound 10 µM, first compound 10 µM) 6.35%.
On to `CC(=O)c1c(C)c2cnc(Nc3ccc(N4CCNCC4)cn3)nc2n(C2CCCC2)c1=O`, for which the viability, T/C by setting is: (compound 0.000949 µM) 95.2% and 104%; (compound 0.003 µM) 88.7% and 83.4%; (compound 0.00949 µM) 75.1% and 80.8%; (compound 0.03 µM) 60.9% and 56.5%; (compound 0.0949 µM) 56.6% and 55%; (compound 0.3 µM) 54.1% and 49.9%. For the same molecule, the IC50 (curve of compound) was > 0.3 µM and 0.253 µM.
